Data published in the supplement of paper PMC10307832.

Columns and labels:
Experiment in all cases: relative viability (nuclei count vs DMSO), 5 days (fraction); higher = more cells survive
GSK-J4 + Tozasertib = compound: CCOC(=O)CCNc1cc(N2CCc3ccccc3CC2)nc(-c2ccccn2)n1 [GSK-J4] + Cc1cc(Nc2cc(N3CCN(C)CC3)nc(Sc3ccc(NC(=O)C4CC4)cc3)n2)n[nH]1 [Tozasertib] (partner 0.1 µM)
Summary of the method: (§1)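 Five library-drug doses in √10 steps were combined with a fixed anchor-drug dose, or a single drug was given alone, by pin tool to lung cancer cell lines in 1536-well plates the day after seeding. Nuclei were stained and counted after 5 days. Relative viability is the nuclei count in treated wells over that in vehicle wells, taken as the median of duplicate plates.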

AZ3146 + Palbociclib = compound: CN1CCC(CC1)OC2=CC(=C(C=C2)NC3=NC=C4C(=N3)N(C(=O)N4C)C5CCCC5)OC [AZ3146] + CC(=O)c1c(C)c2cnc(Nc3ccc(N4CCNCC4)cn3)nc2n(C2CCCC2)c1=O [Palbociclib] (partner 0.5 µM)
Summary of the method: as §1

AZ3146 + Navitoclax = compound: CN1CCC(CC1)OC2=CC(=C(C=C2)NC3=NC=C4C(=N3)N(C(=O)N4C)C5CCCC5)OC [AZ3146] + CC1(C)CCC(c2ccc(Cl)cc2)=C(CN2CCN(c3ccc(C(=O)NS(=O)(=O)c4ccc(N[C@H](CCN5CCOCC5)CSc5ccccc5)c(S(=O)(=O)C(F)(F)F)c4)cc3)CC2)C1 [Navitoclax] (partner 0.5 µM)
Summary of the method: as §1

AZ3146 + Linsitinib = compound: CN1CCC(CC1)OC2=CC(=C(C=C2)NC3=NC=C4C(=N3)N(C(=O)N4C)C5CCCC5)OC [AZ3146] + C[C@]1(O)C[C@@H](c2nc(-c3ccc4ccc(-c5ccccc5)nc4c3)c3c(N)nccn32)C1 [Linsitinib] (partner 1 µM)
Summary of the method: as §1

Cell Line | relative viability (GSK-J4 + Tozasertib; first compound 0.5 µM) | relative viability (GSK-J4 + Tozasertib; first compound 1.581 µM) | relative viability (GSK-J4 + Tozasertib; first compound 5 µM) | relative viability (GSK-J4 + Tozasertib; first compound 15.81 µM) | relative viability (GSK-J4 + Tozasertib; first compound 50 µM) | relative viability (AZ3146 + Palbociclib; first compound 0.08 µM) | relative viability (AZ3146 + Palbociclib; first compound 0.253 µM) | relative viability (AZ3146 + Palbociclib; first compound 2.53 µM) | relative viability (AZ3146 + Palbociclib; first compound 8 µM) | relative viability (AZ3146 + Navitoclax; first compound 0.08 µM) | relative viability (AZ3146 + Navitoclax; first compound 0.253 µM) | relative viability (AZ3146 + Navitoclax; first compound 0.8 µM) | relative viability (AZ3146 + Navitoclax; first compound 2.53 µM) | relative viability (AZ3146 + Navitoclax; first compound 8 µM) | relative viability (AZ3146 + Linsitinib; first compound 0.08 µM) | relative viability (AZ3146 + Linsitinib; first compound 0.253 µM) | relative viability (AZ3146 + Linsitinib; first compound 0.8 µM) | relative viability (AZ3146 + Linsitinib; first compound 2.53 µM) | relative viability (AZ3146 + Linsitinib; first compound 8 µM) | relative viability (AZ3146 + Palbociclib; first compound 0.8 µM)
NCI-H1395 | 0.806 | 0.864 | 0.728 | 0.687 | 0.614 | 0.619 | 0.603 | 0.619 | 0.647 | 1.21 | 0.924 | 0.985 | 1.09 | 1.18 | 0.986 | 1.1 | 1.28 | 1.37 | 1.05 | –
201T | 0.801 | 0.971 | 0.96 | 0.901 | 0.836 | 0.327 | 0.359 | 0.348 | 0.347 | 1.19 | 1.2 | 1.16 | 1.27 | 1.2 | 0.876 | 1.06 | 1.05 | 1.05 | 1.06 | 0.382
NCI-H838 | 0.299 | 0.26 | – | 0.26 | 0.21 | 0.219 | 0.202 | 0.239 | 0.161 | 1.12 | 1.19 | 1.17 | 1.13 | 0.93 | 0.921 | 1 | 0.97 | 0.971 | 0.79 | 0.205
HCC-366 | 0.138 | 0.0869 | – | 0.083 | 0.0821 | 0.312 | 0.398 | 0.391 | 0.271 | 1.01 | 0.958 | 1.06 | 1.16 | 1.14 | 0.674 | 0.598 | 0.593 | 0.637 | 0.855 | 0.419
NCI-H1651 | 0.674 | 0.623 | 0.807 | 0.569 | 0.567 | 0.486 | 0.532 | 0.526 | 0.497 | 1.03 | 1.07 | 1 | 0.995 | 1.1 | 0.886 | 1.07 | 1.04 | 0.989 | 1 | 0.53
LOU-NH91 | 0.654 | 0.502 | 0.438 | 0.619 | 0.644 | 0.513 | 0.582 | 0.539 | 0.537 | 0.685 | 0.609 | 0.76 | 0.697 | 0.7 | 0.954 | 0.84 | 1.06 | 0.914 | 0.895 | 0.512
NCI-H520 | 0.439 | – | 0.497 | 0.39 | 0.425 | 0.237 | 0.216 | 0.237 | 0.195 | 1.18 | 1.06 | 1.04 | 1.1 | 0.981 | 0.843 | 0.896 | 1.05 | 1.12 | 0.786 | 0.22
H3255 | 0.519 | 0.622 | 0.539 | 0.531 | 0.508 | 0.331 | 0.294 | 0.344 | 0.332 | 0.527 | 0.35 | 0.582 | 0.628 | 0.467 | 0.9 | 0.987 | 0.961 | 0.998 | 0.902 | 0.311
